Like-named read-outs stand apart in the source and are kept apart here.
Columns and labels:
human ERα LBD = molecular target: T1, human ERα LBD (Homo sapiens, UniProt P03372); experiment: Competitive fluorescence polarization binding assay, ERα; settings: for RBA ERα: IC50 estradiol/IC50 compound × 100, estradiol = 100%; for α/β ratio: ratio of RBA ERα to RBA ERβ
T1 sequence (P03372 311-547 limits assumed): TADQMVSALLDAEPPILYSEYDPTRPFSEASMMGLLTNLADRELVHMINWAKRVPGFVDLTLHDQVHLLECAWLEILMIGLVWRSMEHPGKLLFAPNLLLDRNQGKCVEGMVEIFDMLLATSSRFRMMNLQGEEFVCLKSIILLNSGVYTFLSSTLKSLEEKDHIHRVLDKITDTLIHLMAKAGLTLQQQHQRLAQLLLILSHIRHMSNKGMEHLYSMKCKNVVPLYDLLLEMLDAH

human ERβ LBD = human ERβ LBD (Homo sapiens, UniProt Q92731); experiment: Competitive fluorescence polarization binding assay, ERβ; settings: for RBA ERβ: IC50 estradiol/IC50 compound × 100, estradiol = 100%
Sequence of human ERβ LBD (Q92731 264-498 limits assumed): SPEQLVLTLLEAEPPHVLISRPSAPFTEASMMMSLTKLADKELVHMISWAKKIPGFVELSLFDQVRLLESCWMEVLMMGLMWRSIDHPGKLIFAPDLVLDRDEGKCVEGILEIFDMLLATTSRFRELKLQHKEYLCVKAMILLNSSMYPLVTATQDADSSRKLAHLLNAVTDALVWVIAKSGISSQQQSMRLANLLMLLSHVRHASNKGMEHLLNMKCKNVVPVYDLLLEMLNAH

MCF-7 cells = experiment: Cell viability assay; type: cell-based, human; settings: Homo sapiens, MCF7, 72 h, read-out: MCF-7 IC50
T-47D cells = experiment: Cell viability assay; type: cell-based, human; settings: Homo sapiens, T47D, 72 h, read-out: T-47D IC50
T-47D^D538G cells = experiment: Cell viability assay; type: cell-based, human; settings: Homo sapiens, 72 h, read-out: T-47D^D538G IC50
T-47D^Y537S cells = experiment: Cell viability assay; type: cell-based, human; settings: Homo sapiens, 72 h, read-out: T-47D^Y537S IC50

| Compound | RBA ERα (human ERα LBD) | α/β ratio (human ERα LBD) | RBA ERβ (human ERβ LBD) | IC50 (MCF-7 cells) | IC50 (T-47D cells) | IC50 (T-47D^D538G cells) | IC50 (T-47D^Y537S cells) | Ki (human ERα LBD) | Ki (human ERβ LBD) | Ki (human ERα LBD; read-out: Ki ERα) | Ki (human ERβ LBD; read-out: Ki ERβ) |
| --- | --- | --- | --- | --- | --- | --- | --- | --- | --- | --- | --- |
| C=CC(=O)Nc1ccc(OS(=O)(=O)C2CC3OC2C(c2ccc(O)cc2)=C3c2ccc(O)cc2)cc1 (stereo not shown) [Compound 26a, 4-Acrylamidophenyl-5,6-bis(4-hydroxyphenyl)-7-oxabicyclo[2.2.1]hept-5-ene-2-sulfonate] | 8.04 ± 0.87% | 2.08 | 3.86 ± 0.34% | 7720 ± 640 nM | > 31000 nM | > 31000 nM | 27200 ± 730 nM |  |  |  |  |
| C/C=C/C(=O)Nc1ccc(OS(=O)(=O)C2CC3OC2C(c2ccc(O)cc2)=C3c2ccc(O)cc2)cc1 (stereo not shown) [Compound 26b, 4-((E)-But-2-enamido)phenyl-5,6-bis(4-hydroxyphenyl)-7-oxabicyclo[2.2.1]hept-5-ene-2-sulfonate] | 4.77 ± 0.16% | 11.93 | 0.40 ± 0.05% | 9180 ± 950 nM | 19400 ± 540 nM | > 31000 nM | > 31000 nM | 0.58 nM | 16.7 nM |  |  |
| CC(C)=CC(=O)Nc1ccc(OS(=O)(=O)C2CC3OC2C(c2ccc(O)cc2)=C3c2ccc(O)cc2)cc1 (stereo not shown) [Compound 26c, 4-(3-Methylbut-2-enamido)phenyl-5,6-bis(4-hydroxyphenyl)-7-oxabicyclo[2.2.1]hept-5-ene-2-sulfonate] | 3.28 ± 0.17% | 2.50 | 1.31 ± 0.66% | 3160 ± 630 nM | 15800 ± 680 nM | 8750 ± 250 nM | 12000 ± 400 nM | 0.84 nM | 5.09 nM |  |  |
| C#CC(=O)Nc1ccc(OS(=O)(=O)C2CC3OC2C(c2ccc(O)cc2)=C3c2ccc(O)cc2)cc1 (stereo not shown) [Compound 26d, 4-Propiolamidophenyl-5,6-bis(4-hydroxyphenyl)-7-oxabicyclo[2.2.1]hept-5-ene-2-sulfonate] | 0.85 ± 0.08% | 1.73 | 0.49 ± 0.04% | 1790 ± 400 nM | 6910 ± 290 nM | 9330 ± 460 nM | 8930 ± 250 nM | 3.25 nM | 13.6 nM |  |  |
| O=C(CCl)Nc1ccc(OS(=O)(=O)C2CC3OC2C(c2ccc(O)cc2)=C3c2ccc(O)cc2)cc1 (stereo not shown) [Compound 26e, 4-(2-Chloroacetamido)phenyl-5,6-bis(4-hydroxyphenyl)-7-oxabicyclo[2.2.1]hept-5-ene-2-sulfonate] | 1.02 ± 0.13% | 1.85 | 0.55 ± 0.02% | 3420 ± 320 nM | 8200 ± 360 nM | 7860 ± 370 nM | 8850 ± 610 nM | 2.71 nM | 12.1 nM |  |  |
| O=C(CBr)Nc1ccc(OS(=O)(=O)C2CC3OC2C(c2ccc(O)cc2)=C3c2ccc(O)cc2)cc1 (stereo not shown) [Compound 26f, 4-(2-Bromoacetamido)phenyl-5,6-bis(4-hydroxyphenyl)-7-oxabicyclo[2.2.1]hept-5-ene-2-sulfonate] |  | 2.08 | 3.86 ± 0.34% | 500 ± 300 nM | 9110 ± 210 nM | > 31000 nM | > 31000 nM |  |  |  |  |
| C=CC(=O)Nc1ccc(C2=C(c3ccc(O)cc3)C3OC2CC3S(=O)(=O)Oc2ccccc2)cc1 (stereo not shown) [Compound 28a, Phenyl-5-(4-acrylamidophenyl)-6-(4-hydroxyphenyl)-7-oxabicyclo[2.2.1]hept-5-ene-2-sulfonate] | 18.55 ± 0.34% | 15.59 | 1.19 ± 0.27% | 5070 ± 710 nM | > 31000 nM | > 31000 nM | > 31000 nM | 0.15 nM | 5.61 nM |  |  |
| C/C=C/C(=O)Nc1ccc(C2=C(c3ccc(O)cc3)C3OC2CC3S(=O)(=O)Oc2ccccc2)cc1 (stereo not shown) [Compound 28b, Phenyl-5-(4-((E)-but-2-enamido)phenyl)-6-(4-hydroxyphenyl)-7-oxabicyclo[2.2.1]hept-5-ene-2-sulfonate] | 14.08 ± 0.25% | 1.35 | 10.40 ± 0.23% | 440 ± 110 nM | 25600 ± 980 nM | 17100 ± 650 nM | > 31000 nM | 0.2 nM | 0.64 nM |  |  |
| CC(C)=CC(=O)Nc1ccc(C2=C(c3ccc(O)cc3)C3OC2CC3S(=O)(=O)Oc2ccccc2)cc1 (stereo not shown) [Compound 28c, Phenyl-6-(4-hydroxyphenyl)-5-(4-(3-methylbut-2-enamido)phenyl)-7-oxabicyclo[2.2.1]hept-5-ene-2-sulfonate] | 22.13 ± 0.92% | 24.59 | 0.90 ± 0.25% | 350 ± 20 nM | 24900 ± 770 nM | 17600 ± 890 nM | > 31000 nM | 0.12 nM | 7.41 nM |  |  |
| O=C(CCl)Nc1ccc(C2=C(c3ccc(O)cc3)C3CC(S(=O)(=O)Oc4ccccc4)C2O3)cc1 (stereo not shown) [Compound 28d, Phenyl-6-(4-(2-chloroacetamido)phenyl)-5-(4-hydroxyphenyl)-7-oxabicyclo[2.2.1]hept-5-ene-2-sulfonate] | 3.46 ± 0.02% | 3.76 | 0.92 ± 0.17% | 660 ± 120 nM | 13400 ± 770 nM | > 31000 nM | > 31000 nM | 0.8 nM | 7.25 nM |  |  |
| O=C(CBr)Nc1ccc(C2=C(c3ccc(O)cc3)C3OC2CC3S(=O)(=O)Oc2ccccc2)cc1 (stereo not shown) [Compound 28e, Phenyl-5-(4-(2-bromoacetamido)phenyl)-6-(4-hydroxyphenyl)-7-oxabicyclo[2.2.1]hept-5-ene-2-sulfonate] | 9.44 ± 0.40% | 26.22 | 0.36 ± 0.03% | 1100 ± 140 nM | 19700 ± 320 nM | > 31000 nM | > 31000 nM | 0.29 nM | 18.5 nM |  |  |
| CC(C)=CC(=O)Nc1ccc(C2=C(c3ccc(O)cc3)C3CC(S(=O)(=O)Oc4ccc(O)cc4)C2O3)cc1 (stereo not shown) [Compound 28f, 4-Hydroxyphenyl-5-(4-hydroxyphenyl)-6-(4-(3-methylbut-2-enamido)phenyl)-7-oxabicyclo[2.2.1]hept-5-ene-2-sulfonate] | 7.93 ± 0.34% | 2.41 | 3.29 ± 0.25% | 930 ± 190 nM | 8530 ± 120 nM | > 31000 nM | 9110 ± 350 nM | 0.35 nM | 2.03 nM |  |  |
| C=CC(=O)Nc1ccc(C2=C(c3ccc(O)cc3)C3OC2CC3S(=O)(=O)N(CC(F)(F)F)c2ccc(O)cc2)cc1 (stereo not shown) [Compound 29a, N-(4-(3-(4-Hydroxyphenyl)-5-(N-(4-hydroxyphenyl)-N-(2,2,2-trifluoroethyl)sulfamoyl)-7-oxabicyclo[2.2.1]hept-2-en-2-yl)phenyl)acrylamide] | 20.03 ± 0.25% | 2.97 | 6.74 ± 0.21% | 180 ± 50 nM | 2850 ± 290 nM | 5550 ± 240 nM | > 31000 nM |  |  | 0.14 nM | 0.99 nM |
| C/C=C/C(=O)Nc1ccc(C2=C(c3ccc(O)cc3)C3OC2CC3S(=O)(=O)N(CC(F)(F)F)c2ccc(O)cc2)cc1 (stereo not shown) [Compound 29b, (E)-N-(4-(3-(4-Hydroxyphenyl)-5-(N-(4-hydroxyphenyl)-N-(2,2,2-trifluoroethyl)sulfamoyl)-7-oxabicyclo[2.2.1]hept-2-en-2-yl)phenyl)but-2-enamide] | 19.82 ± 0.19% | 31.46 | 0.63 ± 0.14% | 360 ± 40 nM | 5120 ± 330 nM | > 31000 nM | > 31000 nM | 0.14 nM | 10.6 nM |  |  |
| CC(C)=CC(=O)Nc1ccc(C2=C(c3ccc(O)cc3)C3CC(S(=O)(=O)N(CC(F)(F)F)c4ccc(C)cc4)C2O3)cc1 (stereo not shown) [Compound 29d, N-(4-(3-(4-Hydroxyphenyl)-6-(N-(p-tolyl)-N-(2,2,2-trifluoroethyl)sulfamoyl)-7-oxabicyclo[2.2.1]hept-2-en-2-yl)phenyl)-3-methylbut-2-enamide] | 6.49 ± 0.21% | 4.74 | 1.37 ± 0.11% | 750 ± 210 nM | 8330 ± 220 nM | > 31000 nM | > 31000 nM | 0.43 nM | 4.87 nM |  |  |
| CC(C)=CC(=O)Nc1ccc(C2=C(c3ccc(O)cc3)C3CC(S(=O)(=O)N(CC(F)(F)F)c4ccccc4)C2O3)cc1 (stereo not shown) [Compound 29e, N-(4-(3-(4-Hydroxyphenyl)-6-(N-phenyl-N-(2,2,2-trifluoroethyl)sulfamoyl)-7-oxabicyclo[2.2.1]hept-2-en-2-yl)phenyl)-3-methylbut-2-enamide] | 9.50 ± 0.09% | 33.9 | 0.28 ± 0.05% | 660 ± 120 nM | 5100 ± 320 nM | 5180 ± 310 nM | 1790 ± 170 nM | 0.29 nM | 23.8 nM |  |  |
| CC(C)=CC(=O)Nc1ccc(C2=C(c3ccc(O)cc3)C3OC2CC3S(=O)(=O)N(CC(F)(F)F)c2ccc(F)cc2)cc1 (stereo not shown) [Compound 29g, N-(4-(5-(N-(4-Fluorophenyl)-N-(2,2,2-trifluoroethyl)sulfamoyl)-3-(4-hydroxyphenyl)-7-oxabicyclo[2.2.1]hept-2-en-2-yl)phenyl)-3-methylbut-2-enamide] | 7.52 ± 0.29% | 7.37 | 1.02 ± 0.13% | 640 ± 100 nM | 5280 ± 230 nM | 7820 ± 470 nM | > 31000 nM | 0.37 nM | 6.54 nM |  |  |

From publication PMC10692362 (Acta Pharmaceutica Sinica. B, 2023)
